Experimental findings from patent publication US20260083702A1, “INHALATION FORMULATION FOR TREATING IPF DISEASE AND PREPARATION METHOD THEREFOR” (SUZHOU INHAL PHARMA CO., LTD., priority 2023, published 2026) are described below.

Assay [1] relates to mice with pulmonary fibrosis. Briefly: MASSON staining of lungs in bleomycin pulmonary fibrosis model (Experimental Example 4). In kind it is in vivo, C57/BL6J mice. Particulars: FIG. 7; for collagen fibers / collagen deposition (MASSON staining): compared with the model group; for lung damage / pathological changes (MASSON staining): inhalation groups compared with model group, oral groups compared with inhalation groups. The text has this: (§1) Establishment of pulmonary fibrosis model: 6-8 week old C57/BL6J mice were selected and acclimatized for one week. The mice were divided into blank control group, model group, apremilast inhalation (Example 2) treatment group, roflumilast inhalation (Example 5) treatment group, crisaborole inhalation (Example 3) treatment group, ibudilast inhalation (Example 10) treatment group, difamilast inhalation (Example 9) treatment group, ibudilast oral administration (Comparative Example 3) treatment group, difamilast oral administration (Comparative Example 4) treatment group, and nintedanib oral administration (Comparative Example 2, nintedanib is a commonly used drug for treating IPF in the prior art) treatment group, with n=8 in each group. On the first day, the mice in the model group and the treatment groups were administered bleomycin solution (3 mg/kg/50 μl) via tracheal instillation, while the control group was treated with an equal volume of physiological saline. Treatment began in each treatment group one week later and lasted for two weeks, and a total of three weeks was required. The bleomycin solution was prepared by mixing bleomycin dry powder with sterile PBS to reach the required concentration (non-surgical method of intratracheal injection of bleomycin into mouse lungs: the mice were anesthetized by inhaling isoflurane, and suspended on a surgical stent at a 70° angle, and bleomycin was administered via intratracheal instillation using a 200 μl pipette).
(§2) HE staining and MASSON staining: Mouse lung tissue was fixed in 4% paraformaldehyde for 24 h, rinsed with running water overnight, dehydrated with alcohol as usual, embedded in paraffin, then serially cut into sections (5 μm), and stained with HE and MASSON respectively. After clearing with xylene, the sections were mounted with neutral resin. The sections were observed and photographed under an optical microscope.

For assay [2], the system named is mice with pulmonary fibrosis. Description: Detection of MDA and HYP content in the lungs, bleomycin pulmonary fibrosis model (Experimental Example 4). Particulars: compared with model group; FIG. 9. The class given is in vivo, C57/BL6J mice.
Excerpt: as §1
Detection of malondialdehyde (MDA) and hydroxyproline (HYP) content in the lungs: An appropriate amount of lung tissue was taken from the mice in each group, homogenized (the ground tissue was centrifuged at 3000 rpm for 10 min and the supernatant was taken for later use), and the MDA and HYP content in the lungs was detected according to the kit instructions (MDA stands for malondialdehyde, a product of lipid peroxidation that reflects oxidative damage; HYP (hydroxyproline) level reflects the degree of fibrotic deposition in the lungs).
(§3) Statistical analysis: The results were statistically analyzed using Graphpad Prism 9.0 software for the experimental data of each group. All experimental data underwent normality test. The measurement data were expressed as mean±standard deviation (mean±SD). One-way ANOVA was used to compare the means of multiple groups of samples. P<0.05 is considered statistically significant.

Assay [3] concerns mice with pulmonary fibrosis. Description: HE staining of lungs in bleomycin pulmonary fibrosis model (Experimental Example 4). To be noted: FIG. 8; for alveolar structure (HE staining): compared with the model group. The class given is in vivo, C57/BL6J mice.
Excerpt: as §1, §2

Assay [4] relates to mice with pulmonary fibrosis. Briefly: Weight measurement in bleomycin pulmonary fibrosis model (Experimental Example 4). The class given is in vivo, C57/BL6J mice. To be noted: FIGS. 5 and 6.
Excerpt: as §1
(§4) Weight measurement: The weight of mice was measured and recorded at a fixed time on the morning each week, and the weight changes of mice in each group at different times were observed.
as §3

Assay [5] concerns mice with pulmonary fibrosis. Briefly: Weight measurement in bleomycin pulmonary fibrosis model (Experimental Example 2). In kind it is in vivo, C57BL6J mice. Particulars: compared with the model group; bleomycin 3 mg/kg intratracheal, treatment from week 1 for two weeks; FIG. 1.
Excerpt: Establishment of pulmonary fibrosis model: 6-8 week old C57BL6J mice were selected and acclimatized for one week. In the model group, apremilast inhalation (Example 2) treatment group, roflumilast inhalation (Example 5) treatment group, crisaborole inhalation (Example 3) treatment group, apremilast oral administration treatment group (Comparative Example 1), and nintedanib oral administration treatment group (Comparative Example 2, nintedanib is a commonly used drug for treating IPF in the prior art), the animals were treated with bleomycin solution (3 mg/kg/50 μl) via intratracheal instillation on the first day, and in the control group, the animals were treated with an equal volume of physiological saline. Treatment started one week later and lasted for two weeks, and a total of three weeks was required. […]
as §4
Statistical analysis: The results were statistically analyzed using Graphpad Prism 9.0 software for the experimental data of each group. […] The measurement data were expressed as mean #standard deviation (mean±SD). […]

In assay [6] the test system is mice with pulmonary fibrosis. Briefly: HE staining of lungs in bleomycin pulmonary fibrosis model (Experimental Example 2). In kind it is in vivo, C57BL6J mice. To be noted: FIG. 3; for alveolar structure (HE staining): compared with the model group. From the text: (§5) Establishment of pulmonary fibrosis model: 6-8 week old C57BL6J mice were selected and acclimatized for one week. In the model group, apremilast inhalation (Example 2) treatment group, roflumilast inhalation (Example 5) treatment group, crisaborole inhalation (Example 3) treatment group, apremilast oral administration treatment group (Comparative Example 1), and nintedanib oral administration treatment group (Comparative Example 2, nintedanib is a commonly used drug for treating IPF in the prior art), the animals were treated with bleomycin solution (3 mg/kg/50 μl) via intratracheal instillation on the first day, and in the control group, the animals were treated with an equal volume of physiological saline. Treatment started one week later and lasted for two weeks, and a total of three weeks was required. The bleomycin solution was prepared by mixing bleomycin dry powder with sterile PBS to reach the required concentration (non-surgical method of intratracheal injection of bleomycin into mouse lungs: the mice were anesthetized with isoflurane and suspended on a surgical stent at a 70° angle. Bleomycin was administered via intratracheal instillation using a 200 μl pipette).
(§6) HE staining and MASSON staining: Mouse lung tissue was fixed in 4% paraformaldehyde for 24 h, rinsed with running water overnight, dehydrated with alcohol conventionally, embedded in paraffin, cut into 5 μm sections, and stained with HE and MASSON respectively. After clearing with xylene, the sections were mounted with neutral resin. The pathological changes in the lungs were observed and photographed under an optical microscope.

Assay [7] concerns mice with pulmonary fibrosis. Description: MASSON staining of lungs in bleomycin pulmonary fibrosis model (Experimental Example 2). The class given is in vivo, C57BL6J mice. Particulars: FIG. 2; for collagen fibers / collagen deposition (MASSON staining): compared with the model group; for pathological changes in the lungs (MASSON staining): inhalation groups compared with model group, oral groups compared with inhalation groups.
Excerpt: as §5, §6

In assay [8] the test system is mice with pulmonary fibrosis. Briefly: Detection of MDA and HYP content in the lungs, bleomycin pulmonary fibrosis model (Experimental Example 2). In kind it is in vivo, C57BL6J mice. To be noted: compared with model group; FIG. 4.
Excerpt: as §5
Detection of malondialdehyde (MDA) and hydroxyproline (HYP) content in the lungs: An appropriate amount of lung tissue was taken from the mice in each group, homogenized (the ground tissue was centrifuged at 3000 rpm for 10 min and the supernatant was taken for later use), and the MDA and HYP content in the lungs was detected according to the kit instructions. MDA stands for malondialdehyde, a product of lipid peroxidation that reflects oxidative damage, while HYP stands for hydroxyproline level, which reflects the level of pulmonary fibrosis.
Statistical analysis: The results were statistically analyzed using Graphpad Prism 9.0 software for the experimental data of each group. All experimental data underwent normality test. The measurement data were expressed as mean #standard deviation (mean±SD). One-way ANOVA was used to compare the means of multiple groups of samples. P<0.05 is considered statistically significant.

[9] abbreviates: 14th day compared to the 7th day after model establishment.

For `CCOc1ccccc1C(=O)NCc1coc(-c2ccc(OC(F)F)c(OC(C)C)c2)n1` [Comparative Example 4, difamilast], in assay [1], the “collagen fibers / collagen deposition (MASSON staining)” value (from here on “collagen fibers / collagen deposition”) is “reduced collagen deposition”; the “lung damage / pathological changes (MASSON staining)” value (from here on “lung damage / pathological changes”) is “slightly thickened alveolar interstitium and a few visible collagen fibers”. Moreover, in assay [2], the “HYP content in the lungs (collagen deposition)” value (shortened to “HYP content in the lungs”) was “slight downward trend, but this did not have statistical significance” and the “MDA content in the lungs (oxidative stress level)” value (from here on “MDA content in the lungs”) is “slight downward trend, but this did not have statistical significance”. Moreover, in assay [3], the “inflammatory cell infiltration (HE staining)” value (shortened to “inflammatory cell infiltration”) is reported as “a few inflammatory cell infiltrations” and the “alveolar structure (HE staining)” value is on record as “improved the alveolar structure”. The weight recovery result in assay [4] (setting [9]) is “significant weight recovery”. Besides, in assay [4] (compared with the model group), the weight recovery entry is recorded as “significant weight recovery”.

For the compound `CCOc1cc([C@@H](CS(C)(=O)=O)N2C(=O)c3cccc(NC(C)=O)c3C2=O)ccc1OC` [Comparative Example 1, apremilast], the “collagen fibers / collagen deposition” value in assay [1] and in assay [7] was “reduced collagen deposition” throughout. In assay [1], the “lung damage / pathological changes” value was “slightly thickened alveolar interstitium and a few visible collagen fibers”. In addition, the weight recovery result in assay [5], in assay [4] (setting [9]) and in assay [4] (compared with the model group) was “significant weight recovery” each time. The “HYP content in the lungs” value in assay [2] was “slight downward trend, but this did not have statistical significance”; in assay [8], “slight tendency to alleviate MDA and HYP in the lungs, but the results were not statistically significant”. Also, the “MDA content in the lungs” value in assay [2] was “slight downward trend, but this did not have statistical significance”; in assay [8] it was “slight tendency to alleviate MDA and HYP in the lungs, but the results were not statistically significant”. Further, the “inflammatory cell infiltration” value in assay [6] and in assay [3] was “a few inflammatory cell infiltrations” each time. The entries for the “alveolar structure (HE staining)” value in assay [6] and in assay [3] were “improved alveolar structure” and “improved the alveolar structure”, respectively. Besides, the “pathological changes in the lungs (MASSON staining)” value in assay [7] is “slightly thickened alveolar interstitium and a few visible collagen fibers”.

In the case of `COC(=O)c1ccc2c(c1)NC(=O)/C2=C(\Nc1ccc(N(C)C(=O)CN2CCN(C)CC2)cc1)c1ccccc1` [Comparative Example 2, nintedanib], the “collagen fibers / collagen deposition” value in assay [1] and in assay [7] was “reduced collagen deposition” in each case. Further, the “lung damage / pathological changes” value in assay [1] is “slightly thickened alveolar interstitium and a few visible collagen fibers”. Besides, the weight recovery result is “no significant difference in weight recovery” in assay [5], “did not show significant body recovery” in assay [4] (setting [9]) and “no significant difference in weight recovery” in assay [4] (compared with the model group). The “HYP content in the lungs” value was “slight downward trend, but this did not have statistical significance” in assay [2]; “slight tendency to alleviate MDA and HYP in the lungs, but the results were not statistically significant” in assay [8]. Besides, the “MDA content in the lungs” value in assay [2] was “slight downward trend, but this did not have statistical significance”; in assay [8] it was “slight tendency to alleviate MDA and HYP in the lungs, but the results were not statistically significant”. Also, the “inflammatory cell infiltration” value in assay [6] and in assay [3] was “a few inflammatory cell infiltrations” throughout. In addition, the entries for the “alveolar structure (HE staining)” value in assay [6] and in assay [3] were “improved alveolar structure” and “improved the alveolar structure”, respectively. In addition, the “pathological changes in the lungs (MASSON staining)” value in assay [7] is “slightly thickened alveolar interstitium and a few visible collagen fibers”.
